Assay results as given in US20250186313A1, “SCALP OR HAIR CARE COMPOSITION COMPRISING NANO-CARBON STRUCTURE” (INBCT Co., Ltd., priority 2022, published 2025).

What was measured:
[1] = test system: artificial skin model KeraSkin; experiment: Skin irritation test using artificial skin model KeraSkin (MTT); conditions: negative control (DPBS) = 100%, nano-carbon structure at 0.1 wt % (1 mg/mL)
Protocol: The inventors of the present invention evaluated the skin irritation of nano-carbon structures using the artificial skin model KeraSkin.
Specifically, the inventors of the present invention attempted to predict the possibility of skin irritation by measuring the damage to skin cells that appear while penetrating the stratum corneum of KeraSkin after sample treatment. This experiment used MTT, which is a reagent for measuring the cell viability of test materials, and was performed in compliance with the Cosmetic Risk Assessment Guidelines (Ministry of Food and Drug Safety, 2013) and Cosmetic Toxicity Test Animal Alternative Test Method Guideline V: Skin Irritation Test Method Using a Human Skin Model (Ministry of Food and Drug Safety, 2014).

[2] = test system: artificial skin model KeraSkin; experiment: Skin corrosion test using artificial skin model KeraSkin (MTT); assay type: cell-based, human; conditions: negative control (deionized water) = 100%, nano-carbon structure at 0.1 wt % (1 mg/mL)
Excerpt: The inventors of the present invention evaluated the skin corrosion properties of nano-carbon structures by using the artificial skin model […] is an artificial skin model that reproduces the skin's epithelium using human-derived skin keratinocytes and is manufactured to be similar to real skin in terms of morphology, microstructure and biomarker expression.

[3] = test system: artificial skin model KeraSkin; experiment: Skin barrier function improvement in SDS-damaged KeraSkin (TEER, TEWL, H&E, immunohistochemistry); assay type: cell-based, human; conditions: KeraSkin damaged with 2% SDS, 10 μM retinoic acid or 0.01 wt % NGO
Protocol: After treating the surface of KeraSkin with SDS (sodium dodecyl sulfate), which is an anionic surfactant, to weaken the skin's natural barrier function, a positive control material (10 μM retinoic acid) and a test material (0.01 wt % NGO) were added to the surface for 48 days. In order to evaluate the degree of improvement in the skin barrier function weakened by SDS by 48-hour application treatment, electrical resistance in epithelial tissue was measured by using the Millipore ERS-2 (Millipore, USA) system, and transepidermal water loss was measured by using the GPSKIN BARRIER PRO-II system, and histopathology was performed on four types of skin barrier markers through immunochemical staining.
The epithelial cell layer has developed tight junctions, which are one of the forms of bonding between cells. These tight junctions form physical and chemical barriers, and the strength and integrity of these barriers can be assessed through the degree of electrical resistance across cell layers, which are called “transepithelial electrical resistance (TEER).” As the barrier function is excellent, the transepithelial electrical resistance value increases.
Transdermal moisture is an essential element for the skin to perform its barrier function normally, and when “transepidermal water loss (TEWL)” increases, the enzyme function required for normal exfoliation is damaged, and it is not possible to normally perform the skin barrier functions. Therefore, transepidermal water loss is used as an important physiological indicator during the damage and recovery process of the skin barrier.

CCCCCCCCCCCCOS(=O)(=O)[O-].[Na+] [5% SDS, sodium dodecyl sulfate]
cell viability [1]: 1.6%

[K+].[OH-] [8N KOH, Potassium hydroxide]
cell viability ([2]; applied for 3 minutes): 1.6% | cell viability ([2]; applied for 1 hour): 0.6%

CC1=C(/C=C/C(C)=C/C=C/C(C)=C/C(=O)O)C(C)(C)CCC1 [retinoic acid]
increase of transepithelial electrical resistance compared to the barrier damaged group [3]: 16.1% | reduction of transepidermal water loss compared to the barrier damaged group [3]: 10.8% | transepithelial electrical resistance (TEER) ([3]; 48-hour application, normal 1726.8±85.3, damaged 69.2±2.1): 347.0±15.7 Ω·cm^2 | transepidermal water loss (TEWL) rate compared to the negative control group ([3]; damaged group 133.7±3.2%): 122.9±6.5%
